Experimental data: patent US10688082B2, “Aminopyrazine compounds with A2A antagonist properties” (Merck Sharp & Dohme Corp., priority 2015, dated 2020)

Molecular target: T1, human A2a receptor (Homo sapiens, UniProt P29274)
T1 construct: purchased Perkin-Elmer RBHA2AM400UA; host or cells: HEK293 cells (membranes)
Assay: Competition binding assay using Scintillation Proximity technology (A2a activity)
Details: membranes from HEK293 cells expressing the human A2a receptor; 0.5 nM tritiated ligand; Cheng-Prusoff
Method in brief: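 Membranes from HEK293 cells expressing human A2a, pretreated with adenosine deaminase, competed against 0.5 nM tritiated pyrazolotriazolopyrimidine ligand with WGA SPA beads, 1 h at room temperature with agitation. Compounds 3000–0.152 nM final; nonspecific binding with 1 μM CGS15943. Ki from […] via Cheng-Prusoff.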

T1 sequence (P29274 whole entry): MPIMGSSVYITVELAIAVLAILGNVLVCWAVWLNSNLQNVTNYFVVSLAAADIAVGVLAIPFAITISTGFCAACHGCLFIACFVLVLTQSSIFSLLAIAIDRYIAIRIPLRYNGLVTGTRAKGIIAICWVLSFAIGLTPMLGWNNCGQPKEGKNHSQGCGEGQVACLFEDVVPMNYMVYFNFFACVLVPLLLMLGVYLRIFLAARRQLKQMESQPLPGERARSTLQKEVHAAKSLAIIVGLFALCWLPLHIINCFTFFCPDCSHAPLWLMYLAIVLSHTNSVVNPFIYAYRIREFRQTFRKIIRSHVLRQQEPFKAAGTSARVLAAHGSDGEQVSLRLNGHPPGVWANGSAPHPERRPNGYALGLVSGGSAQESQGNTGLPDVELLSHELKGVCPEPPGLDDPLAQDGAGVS

SMILES	Ki [nM]
Nc1nc2ccc(F)cc2c2cc(Cc3ccccc3N3CCOCC3)nn12 [Ex-106, 9-fluoro-2-(2-morpholinobenzyl)pyrazolo[1,5-c]quinazolin-5-amine]	65
Nc1nc2ccccc2c2cc(Cc3ccccc3CN3CCOCC3)nn12 [Ex-97, 2-(2-(morpholinomethyl)-bcnzyl)pyrazolo[1,5-c]-quinazolin-5-amine]	51
COc1cccc2c1nc(N)n1nc(Cc3cccc4cccnc34)cc21 [Ex-9, 7-methoxy-2-(quinolin-8-ylmethyl)pyrazolo[1,5-c]quinazolin-5-amine]	3
Nc1nc2c(F)cccc2c2cc(-c3nnc(-c4cccc5cccnc45)o3)nn12 [Ex-112, 7-fluoro-2-(5-(quinolin-8-yl)-1,3,4-oxadiazol-2-yl)pyrazolo[1,5-c]quinazolin-5-amine]	131
COc1cccc2c1nc(N)n1nc(-c3nnc(N4CCN(c5ccccc5)CC4)o3)cc21 [Ex-102, 7-methoxy-2-(5-(4-phenylpiperazin-1-yl)-1,3,4-oxadiazol-2-yl)pyrazolo[1,5-c]quinazolin-5-amine]	33
COc1cccc2c1nc(N)n1nc(C(=O)N3CCCCC3)cc21 [Ex-72, (5-amino-7-methoxypyrazolo[1,5-c]quinazolin-2-yl)(piperidin-1-yl)methanone]	37
COCCOc1ccc(N2CCN(CCOc3cccc4c3nc(N)n3nc(-c5ccco5)cc43)CC2)cc1 [Ex-3, 2-(furan-2-yl)-7-(2-(4-(4-(2-methoxyethoxy)phenyl)piperazin-1-yl)ethoxy)pyrazolo[1,5-c]quinazolin-5-amine]	677
COc1cccc2c1nc(N)n1nc(C(=O)N(C)Cc3cccc4cccnc34)cc21 [Ex-82, 5-amino-7-methoxy-N-methyl-N-(quinolin-8-ylmethyl)pyrazolo[1,5-c]quinazoline-2-carboxamide]	7
Nc1nc2ccc(F)cc2c2cc(C(=O)N3CCN(c4ccccn4)CC3)nn12 [Ex-115, (5-amino-9-fluoropyrazolo[1,5-c]-quinazolin-2-yl)(4-(pyridin-2-yl)-piperazin-1-yl)methanone]	41

Second part, the compound after the results:

Ki [nM]	SMILES
49	COc1cccc2c1nc(N)n1nc(Cc3cccc4c3CNC4=O)cc21 [Ex-56, 4-((5-amino-7-methoxypyrazolo[1,5-c]quinazolin-2-yl)methyl)isoindolin-1-one]
6	COc1cccc2c1nc(N)n1nc(Cc3cccc(F)c3F)cc21 [Ex-40, 2-(2,3-difluorobenzyl)-7-methoxypyrazolo[1,5-c]quinazolin-5-amine]
12	COc1cccc2c1nc(N)n1nc(Cc3cccc(C(F)(F)F)c3)cc21 [Ex-36, 7-methoxy-2-(3-(trifluoromethyl)benzyl)pyrazolo[1,5-c]quinazolin-5-amine]
69	COc1cccc2c1nc(N)n1nc(Cc3cccc(-n4cccn4)c3)cc21 [Ex-58, 2-(3-(1H-pyrazol-1-yl)benzyl)-7-methoxypyrazolo[1,5-c]quinazolin-5-amine]
139	COc1cccc2c1nc(N)n1nc(Cc3cccc(-n4nc(C)cc4C)c3)cc21 [Ex-54, 2-(3-(3,5-dimethyl-1H-pyrazol-1-yl)benzyl)-7-methoxypyrazolo[1,5-c]quinazolin-5-amine]
12	COc1cccc2c1nc(N)n1nc(Cc3ccc(F)cc3)cc21 [Ex-5, 2-(4-fluorobenzyl)-7-methoxypyrazolo[1,5-c]quinazolin-5-amine]
48	COc1cccc2c1nc(N)n1nc(Cc3cccc4ccsc34)cc21 [Ex-53, 2-(benzo[b]thiophen-7-ylmethyl)-7-methoxypyrazolo[1,5-c]quinazolin-5-amine]
131	COc1cccc2c1nc(N)n1nc(Cc3ccc4[nH]ncc4c3)cc21 [Ex-16, 2-((1H-indazol-5-yl)methyl)-7-methoxypyrazolo[1,5-c]quinazolin-5-amine]
18	COc1cccc2c1nc(N)n1nc(Cc3cccc4cnccc34)cc21 [Ex-44, 2-(isoquinolin-5-ylmethyl)-7-methoxypyrazolo[1,5-c]quinazolin-5-amine]
333	COc1cccc2c1nc(N)n1nc(Cc3ccc(N4CCNCC4)cc3)cc21 [Ex-25, 7-methoxy-2-(4-(piperazin-1-yl)benzyl)pyrazolo[1,5-c]quinazolin-5-amine]
